Results: US12201593B2, “Oral pharmaceutical formulations of bitter compounds for asthma” (Aardvark Therapeutics Inc., priority 2018, dated 2025)

What was measured:
[1] = test system: primary human smooth muscle (HASM) cells; test: FLECS bronchodilator assay: single-cell contractility of HASM cells after bradykinin/carbachol-induced contraction; format: cell-based; conditions: for effect on contraction relative to control (FIG. 2): test agent 100 μM alone, stimulating agents BK and carbachol (10 μM), negative control 0.1% DMSO; for relaxation of stimulated cells: HASM from asthmatic and non-asthmatic humans, stimulated to contract with bradykinin
Source text: FIGS. 1A, 1B, and 1C show the bronchodilator assay workflow with a […] of FLECS. Each well holds ˜1,200 micro-patterns for sensing force-generation by single cells. […] The two cases represent the positive and negative controls for the assay.
An in vitro model using human airway smooth muscle cells (HASM) from both asthmatic patients and “normal” non-asthmatic humans was stimulated to contract with bradykinin.
The assay investigated bronchodilatation properties of bitter taste agonists, individually and in combination, administered to primary human smooth muscle (HASM) cells after inducing contraction with asthmatic agent bradykinin. HASM cells were obtained from asthmatic patients and “normal” or non-asthmatic patients. Each of 4 primary HASM cell lines (2 from healthy donors; 2 from asthmatic donors) were seeded on FLECSplates and were stimulated to contract via exposure to bradykinin (BK) or carbachol. […] Accordingly, at 15 minutes following exposure to BK, the cells were treated with a denatonium salt or 3-CQL for Example 1, or combinations thereof, as well as positive controls and negative controls. The cells were imaged at 5 minute intervals beginning with a baseline reading, out to 45 minutes. The measurement was attenuation of population wide BK-induced contractility by treatment of a test compound (or combination) relative to controls.
Each well holds ˜1,200 micro-patterns for sensing force-generation by single cells. […] The two cases represent the positive and negative controls for the assay.

[2] = test system: TAS2R subtypes; conditions: cited from earlier work

SMILES | potency of formoterol alone (FIG. 2) ([1]; formoterol 1 μM, concentration reduced 50×) | number of TAS2R subtypes activated [2] | effect on contraction relative to control (FIG. 2) [1] | relaxation of stimulated cells [1]
COc1ccc(CC(C)NCC(O)c2ccc(O)c(NC=O)c2)cc1 (stereo not drawn) [formoterol, Formoterol] | not as potent as previous experiments |  |  | 
CC[N+](CC)(CC(=O)Nc1c(C)cccc1C)Cc1ccccc1 [DB, phenylmethyl-[2-[(2,6-dimethylphenyl)amino]-2-oxoethyl]-diethylammonium benzoate] |  | 8 | relaxing effect | 
O=C(/C=C/c1ccc(O)c(O)c1)O[C@@H]1C[C@](O)(C(=O)O)C[C@@H](O)[C@H]1O [3-CQL, 3-caffeoylquinic acid] |  |  | increase contraction relative to control | did not relax
CC[N+](CC)(CC(=O)Nc1c(C)cccc1C)Cc1ccccc1 [DS, denatonium saccharide] |  |  |  | did relax
